The values that follow are results of earlier work, collected in patent US20050214675A1, “Positive-type photosensitive composition” (FUJI PHOTO FILM CO., LTD., priority 2004, published 2005).

The conditions of the series: for Hammett value: cation of the sulfonium salt used in the plate, third embodiment Tables 1 to 4; for σ (sum of Hammett values of substituents on the aryl skeletons of the cation): o-position treated as p-position.
Setting [1] is: compound list of first embodiment.
[2] abbreviates: compound list of second embodiment.

Like-named read-outs stand apart in the source and are kept apart here.

With `O=Cc1ccccc1S(=O)(=O)O` [(72)], the Hammett value was 0.69. Turning to `COc1ccc([S+](c2ccc(OC)cc2)c2ccc(OC)cc2)cc1` [(88)], the “σ (sum of Hammett values of substituents on the aryl skeletons of the cation)” value runs as follows: under setting [1], −0.804; under setting [2], −0.804. For the compound `Cc1ccc([S+](c2ccc(Cl)cc2)c2ccc(Cl)cc2)cc1` [(84)], the “σ (sum of Hammett values of substituents on the aryl skeletons of the cation)” value runs as follows: under setting [1], 0.29; under setting [2], 0.29. As for `CC(C)(C)c1ccc([S+](c2ccc(Cl)cc2)c2ccc(Cl)cc2)cc1` [(85)], the “σ (sum of Hammett values of substituents on the aryl skeletons of the cation)” value under setting [1] was 0.26 and the “σ (sum of Hammett values of substituents on the aryl skeletons of the cation)” value under setting [2] is reported as 0.26. On to `CC(C)(C)c1ccc([S+](c2ccc(C(C)(C)C)cc2)c2ccc(C(C)(C)C)cc2)cc1` [(86)], for which the “σ (sum of Hammett values of substituents on the aryl skeletons of the cation)” value is, setting by setting: under setting [1], −0.59; under setting [2], −0.59. Take `COC(=O)c1cc(C(=O)OC)cc(S(=O)(=O)O)c1` [(75)]: the Hammett value is listed as 0.69. With `O=C(O)c1cc(C(=O)O)cc(S(=O)(=O)O)c1` [(76)], the Hammett value is recorded as 0.69. With `Fc1ccc([S+](c2ccc(F)cc2)c2ccc(F)cc2)cc1` [(87)], the “σ (sum of Hammett values of substituents on the aryl skeletons of the cation)” value reads like this: under setting [1], 0.186; under setting [2], 0.186. As to `O=S(=O)(O)c1ccc(O)cc1` [(68)], the Hammett value was 0.69. As for `Cc1ccc([S+](c2ccc(C)cc2)c2cc(C)c(O)c(C)c2)cc1` [(89)], the “σ (sum of Hammett values of substituents on the aryl skeletons of the cation)” value by setting is: under setting [1], −0.848; under setting [2], −0.848. In the case of `COc1cc(O)c(C(=O)c2ccccc2)cc1S(=O)(=O)O` [(77)], the Hammett value was 0.69. Regarding `O=C(O)c1c2ccccc2cc2ccccc12` [(28)], the Hammett value was 0.
